# Reference: patent US20250152616A1, “COMPOSITIONS FOR AND METHODS OF TREATING, PREVENTING, AND/OR MITIGATING PAIN” (Duke University, priority 2022, published 2025)
# Columns and labels:
# dissociated DRG neurons = experiment: FluoVolt membrane potential imaging of dissociated DRG neurons; assay type: cell-based, mouse; conditions: 1 day NGF followed by adenosine treatment; capsaicin stimulation
# Text: DRG were isolated from mice using a modified version of the previously described protocol (Perner C, et al. (2021) STAR Protoc. 2:100333). Briefly, mice were euthanized and dosed in 70% ethanol to prevent fur contamination. Mice were positioned prone, and an incision was made along the spine from the neck to the base of the tail. Under a dissecting microscope, the surrounding soft tissue of the spinal column was removed from the dorsal side by Friedman-Pearson Rongeurs (Fine Science Tools, Foster City, CA, Cat #16021-14) from the mid thoracic region to the lumbosacral joint. The vertebral bone surrounding the DRG was gently crushed and removed with rongeurs exposing the spinal cord. The DRG were carefully extracted near the foramen between the vertebral levels. L3 and L4 DRG were collected for analyses. Dissected DRG were placed directly into ice-cold DMEM-F12 medium (ThermoFisher, Cat #11320033) for in vitro culture, Trizol (ThermoFisher, Cat #15596018) for PCR analyses, or 4% PFA for histology. For cell culture experiments, collected DRG were digested in digestion solution comprised of collagenase type II (Worthington, Lakewood, NJ, Cat #LS004176) and dispase (1.5 mg/mL each) dissolved in DMEM/F12. […]
# DRG neuron potential changes were evaluated with FluoVolt, a voltage sensitive indicator dye (ThermoFisher, Cat #F10488). […]
# fractured tibiae = experiment: MicroCT of fractured tibiae (fracture healing); assay type: in vivo, mouse; conditions: 21 days post-fracture
# Experimental: In all experiments, 12-week-old to 16-week-old C57BL/6J male mice (Jackson Laboratory, Bar Harbor, ME) and Lepr-cre; tdTomato reporter mice were used. The average mouse weight was 25 grams and mice were housed in groups of four to five, and kept on a 12-hr light-dark cycle with lights off at 1800 hr. All animals had ad libitum access to chow (PMI LabDiet 5001) and water. Fracture surgeries were performed as previously described (Zeng Y, et al. (2020) Adv Mater. 32:e1906022). Animals were anesthetized by isoflurane and injected with 1 mg/kg buprenorphine SR-LAB (ZooPharm, Laramie, WY). Each mouse was then placed in a supine position with the right tibia disinfected. After skin incision and reflection, proximal to the right knee, a 0.7-mm pin was inserted from the tibial plateau through the medullary cavity to stabilize the tibia, and a cut was made at the tibial midshaft to induce a transverse fracture. Bupivacaine (0.5%; Hospira, Lake Forest, IL) at ˜1 mg/kg body weight was applied at the surgical site following wound closure using 2 reflex clips (5 mm). For animals treated with control and adenosine-loaded macroporous hydrogels, macroporous hydrogels measuring approximately 5 mm (length)×3 mm (width)×1 mm (thick) containing either 1.05±0.1 mg adenosine (ADO) or no adenosine (CTL) were implanted adjacent to the fractures immediately. […] The animals were treated with the macroporous hydrogels with or without adenosine immediately following the fracture. In the cohorts for weight bearing and open field activity measurements, 1 animal from the control group and 1 animal from the treatment group were euthanized due to shift of the inserted pin following fracture.
# Tibiae were collected, fixed in 4% PFA at 4° C. for 1 day, and rinsed with PBS. The fixed samples were placed in 50-mL centrifuge tubes with styrofoam spacers and loaded into a microcomputed tomography (microCT) scanner (vivaCT 80, Scanco Medical, Wayne, PA). The samples were scanned at 55 keV at a pixel resolution of 10.4 μm. The reconstruction of the images was performed using microCT Evaluation Program V6.6 (Scanco Medical), followed by generation of radiographs and 3D models using microCT Ray V4.0 (Scanco Medical). Total volume (TV), bone volume (BV) per total volume (TV) (% BV/TV), and bone mineral density (BMD) was quantified using the phantom as a reference based on 100 contiguous slices.
smiles,measurement,setting,value
Nc1ncnc2c1ncn2[C@@H]1O[C@H](CO)[C@@H](O)[C@H]1O [adenosine],NGF-induced increase in membrane potential (FluoVolt),dissociated DRG neurons,attenuated
same,callus size (microCT),fractured tibiae,smaller calluses
same,cortical bone bridging (microCT),fractured tibiae,improved bridging of cortical bone with less trabecular bone
same,total volume (TV) of regenerating calluses vs control,fractured tibiae,lower
same,fracture healing (microCT images and radiographs),fractured tibiae; local delivery,accelerated
